In US20240116926A1, “HETEROAROMATIC COMPOUNDS” (AstraZeneca AB, priority 2022, published 2024):
pIC50: −log10 of the molar value. ≈ marks a conversion by molar mass, not a printed value.

Assays:
[1] = Solubility (thermodynamic, shake-flask); format: physicochemical; details: thermodynamic from solid; aqueous phosphate buffer (pH 7.4), 24 hours at 25° C.
Method: The thermodynamic solubility of a research compound is measured under standard conditions. It is a shake-flask approach that uses 10 mM DMSO solutions which are supplied from the Compound Managements liquid store and is a high throughput method. The dried compounds are equilibrated in an aqueous phosphate buffer (pH 7.4) for 24 hours at 25° C., the portion with the dissolved compound is then separated from the remains. The solutions are analyzed and quantified using UPLC/MS/MS, QC-samples are incorporated in each assay-run to ensure the quality of the assay.

[2] = system: MCF7-Tead cell line; assay: TEAD reporter assay; format: cell-based; details: MCF7-Tead cells, luciferase activity after 24 hours
Method: (§1) MCF7-Tead cell line was obtained from BPS BIOSCIENCE (catalog number 60618) and was maintained in DMEM containing 10% fetal calf serum, 2 mM glutamine, and 400 μg/ml G418. Cells were grown in a humidified incubator at 37° C. with 5% CO2. Cells were distributed to flat bottom white polystyrene TC treated 384 well plates at a density of 3,500 cells/well in 30 uL. Cells were incubated for 24 hours at 37° C. with 5% CO2. Cells were acoustically dosed using an Echo 555, with compounds serially diluted in 100% DMSO. Plates were incubated for an additional 24 hours. Cells were examined for luciferase activity through the addition of 30 μL Bright-Glo luciferase (Promega catalog number E2620). Plates were incubated for 10 minutes at room temperature and luminescence was read using Tecan plate reader. The data obtained with each compound was exported to […] software to perform curve fitting analysis.

[3] = system: MCF7-Luciferase cell line; assay: Control reporter (MCF7-Luciferase); format: cell-based; details: MCF7-Luciferase cells, luciferase activity after 24 hours
Method: (iii) Control Reporter (MCF7-Luciferase)
as §1, with “MCF7-Luciferase” for “MCF7-Tead”, “BPS BIOSCIENCE” left out, “SC050-L)” for “60618)”, “glutamine.” for “glutamine, and 400 μg/ml G418.”, “μL.” for “uL.”

[4] = target: TEAD4(217-434) (Homo sapiens (Human), UniProt Q15561); assay: TEAD4 FRET; format: binding; details: depalmitoylated, biotinylated TEAD4(217-434), FAM labelled Probe A, 120 min at 25° C.
TEAD4(217-434), sequence (Q15561 217-434): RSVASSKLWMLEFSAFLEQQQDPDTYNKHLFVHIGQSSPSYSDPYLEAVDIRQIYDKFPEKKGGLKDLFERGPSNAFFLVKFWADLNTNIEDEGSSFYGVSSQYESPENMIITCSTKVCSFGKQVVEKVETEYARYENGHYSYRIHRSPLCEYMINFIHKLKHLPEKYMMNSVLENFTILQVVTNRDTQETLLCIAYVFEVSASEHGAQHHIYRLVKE
Method: Compounds were dosed with a final DMSO concentration of 1% (v/v). Compound IC50 values were assessed following a 10-point, half-log10 dilution schema starting at 100 μM compound concentration. Specifically, human TEAD protein from TEAD4(217-434) was cloned into an overexpression vector, expressed as an N-terminal HIS-TEV-Avi-tagged fusion protein in E coli, and subsequently purified, then protein was chemically depalmitoylated & biotinylated. The assay was performed in 384-well LV plates (384-well black, medium binding, PS, HIBASE, GREINER #784076) and run in the presence and absence of the compound of interest. Each well of 5 μL assay mixture contained 10 mM Tris-HCl (pH 7.5), 100 mM NaCl, 0.05 mM EDTA, 1 mM TECP, 1% DMSO, 0.03% Pluronic acid F127, 20 nM dePal Avi TEAD4 (217-434)-depalmitoylated & biotinylated protein, 0.8 nM Streptavidin Terbium cryptate (CisBio #610SATLB), 625 nM FAM labelled Probe A. Reactions were incubated at 25° C. for 120 min before reading on a PHERASTAR FSX Plate Reader (337 520 490 HTRF module required) (Supplier BMP).
The data file from the PHERAstar FSX contains both the acceptor (520 nm) and donor channels (490 nm) (“Channel A”=acceptor channel (520 nm), “Channel B”=donor channel (490 nm)). The ratio of the donor and acceptor (Channel A/Channel B) is calculated within Genedata Assay Analyzer.
Probe A is 3′,6′-dihydroxy-3-oxo-N-{8-[2-(5-{2-[4-(trifluoromethyl)anilino]phenyl}-2H-tetrazol-2-yl)acetamido]octyl}-3H-spiro[[2]benzofuran-1,9′-xanthene]-5-carboxamide;

solubility at 24 h [1]	pIC50 [2]	pIC50 [3]	pIC50 [4]	Structure (SMILES)
7 µM (≈ 3.06 µg/mL)	7.03	4.65	–	C=CC(=O)N1C[C@H](C#N)[C@H](Nc2nnc(-c3ccc(C(F)(F)F)cc3)c3ccccc23)C1 (single isomer, unassigned; enantiomer 1) [Example 29, enantiomer 1 of cis-1-acryloyl-4-((4-(4-(trifluoromethyl)phenyl)phthalazin-1-yl)amino)pyrrolidine-3-carbonitrile]
191 µM (≈ 83.5 µg/mL)	6.84	4.89	7.00	C=CC(=O)N1CC(C#N)[C@@H](Nc2nnc(-c3ccc(C(F)(F)F)cc3)c3ccccc23)C1 (single isomer, unassigned; enantiomer 1) [Example 30, enantiomer 1 of trans-1-acryloyl-4-((4-(4-(trifluoromethyl)phenyl)phthalazin-1-yl)amino)pyrrolidine-3-carbonitrile]
534 µM (≈ 243 µg/mL)	7.24	4.51	7.14	C=CC(=O)N1C[C@H](Nc2nnc(-c3ccc(C(F)(F)F)cc3)c3ccccc23)[C@@H](C(N)=O)C1 (single isomer, unassigned; enantiomer 1) [Example 31, enantiomer 1 of trans-1-acryloyl-4-((4-(4-(trifluoromethyl)phenyl)phthalazin-1-yl)amino)pyrrolidine-3-carboxamide]
–	6.23	< 4.50	–	C=CC(=O)N1CC[C@@H](Nc2ncc(-c3ccc(C(F)(F)F)cn3)c3ncccc23)C1 [Comparative Example A, (R)-1-(3-((8-(5-(trifluoromethyl)pyridin-2-yl)-1,6-naphthyridin-5-yl)amino)pyrrolidin-1-yl)prop-2-en-1-one, reference compound]
2 µM (≈ 0.797 µg/mL)	6.79	< 4.50	7.52	C=CC(=O)N1CC(Nc2nc(-c3ccc(C(F)(F)F)cc3)nc3ccccc23)C1 [Comparative Example B, 1-[3-({2-[4-(trifluoromethyl)phenyl]-4-quinazolinyl}amino)-1-azetidinyl]-2-propen-1-one, reference compound]
209 µM (≈ 90.2 µg/mL)	7.17	4.56	7.03	C=CC(=O)N1C[C@H](F)[C@H](Nc2nnc(-c3ccc(C(F)(F)F)cc3)c3ncccc23)C1 [Example 1, 1-((3S,4R)-3-fluoro-4-((8-(4-(trifluoromethyl)phenyl)pyrido[2,3-d]pyridazin-5-yl)amino)pyrrolidin-1-yl)prop-2-en-1-one]
188 µM (≈ 81.1 µg/mL)	7.66	4.89	7.25	C=CC(=O)N1C[C@H](F)[C@H](Nc2nnc(-c3ccc(C(F)(F)F)cc3)c3cccnc23)C1 [Example 2, 1-((3S,4R)-3-fluoro-4-((5-(4-(trifluoromethyl)phenyl)pyrido[2,3-d]pyridazin-8-yl)amino)pyrrolidin-1-yl)prop-2-en-1-one]
10 µM (≈ 4.31 µg/mL)	7.17	4.56	7.03	C=CC(=O)N1C[C@@H](F)[C@H](Nc2nnc(-c3ccc(C(F)(F)F)cc3)c3ncccc23)C1 [Example 3, 1-((3R,4R)-3-fluoro-4-((8-(4-(trifluoromethyl)phenyl)pyrido[2,3-d]pyridazin-5-yl)amino)pyrrolidin-1-yl)prop-2-en-1-one]
230 µM (≈ 99.2 µg/mL)	6.72	4.58	6.39	C=CC(=O)N1C[C@@H](F)[C@H](Nc2nnc(-c3ccc(C(F)(F)F)cc3)c3cccnc23)C1 [Example 4, 1-((3R,4R)-3-fluoro-4-((5-(4-(trifluoromethyl)phenyl)pyrido[2,3-d]pyridazin-8-yl)amino)pyrrolidin-1-yl)prop-2-en-1-one]
67 µM (≈ 28.8 µg/mL)	7.82	4.81	7.49	C=CC(=O)N1C[C@H](F)[C@H](Nc2nnc(-c3ccc(C(F)(F)F)cc3)c3ccccc23)C1 [Example 10, 1-((3S,4R)-3-fluoro-4-((4-(4-(trifluoromethyl)phenyl)phthalazin-1-yl)amino)pyrrolidin-1-yl)prop-2-en-1-one]
9 µM (≈ 3.87 µg/mL)	6.81	4.99	7.48	C=CC(=O)N1C[C@@H](F)[C@H](Nc2nnc(-c3ccc(C(F)(F)F)cc3)c3ccccc23)C1 [Example 11, 1-((3R,4R)-3-fluoro-4-((4-(4-(trifluoromethyl)phenyl)phthalazin-1-yl)amino)pyrrolidin-1-yl)prop-2-en-1-one]
370 µM (≈ 159 µg/mL)	7.00	4.63	7.28	C=CC(=O)N1C[C@H](O)[C@H](Nc2nnc(-c3ccc(C(F)(F)F)cc3)c3ccccc23)C1 [Example 12, 1-((3S,4R)-3-hydroxy-4-((4-(4-(trifluoromethyl)phenyl)phthalazin-1-yl)amino)pyrrolidin-1-yl)prop-2-en-1-one]
38 µM (≈ 15.6 µg/mL)	6.29	6.01	–	C#CC(=O)N1CC[C@H](Nc2nnc(-c3ccc(C(F)(F)F)cc3)c3ccccc23)C1 [Example 19, (S)-1-(3-((4-(4-(trifluoromethyl)phenyl)phthalazin-1-yl)amino)pyrrolidin-1-yl)prop-2-yn-1-one]
34 µM (≈ 15.2 µg/mL)	6.03	4.82	7.38	C=CS(=O)(=O)N1CC[C@H](Nc2nnc(-c3ccc(C(F)(F)F)cc3)c3ccccc23)C1 [Example 21, (S)-4-(4-(trifluoromethyl)phenyl)-N-(1-(vinylsulfonyl)pyrrolidin-3-yl)phthalazin-1-amine]
44 µM (≈ 18.9 µg/mL)	8.05	< 4.50	7.77	C=CC(=O)N1C[C@H](O)[C@H](Nc2ncc(-c3ccc(C(F)(F)F)cc3)c3ncccc23)C1 [Example 34, 1-((3S,4R)-3-hydroxy-4-((8-(4-(trifluoromethyl)phenyl)-1,6-naphthyridin-5-yl)amino)pyrrolidin-1-yl)prop-2-en-1-one]
801 µM (≈ 344 µg/mL)	7.47	< 4.50	7.10	C=CC(=O)N1C[C@H](O)[C@H](Nc2ncc(-c3ccc(C(F)(F)F)cn3)c3ncccc23)C1 [Example 35, 1-((3S,4R)-3-hydroxy-4-((8-(5-(trifluoromethyl)pyridin-2-yl)-1,6-naphthyridin-5-yl)amino)pyrrolidin-1-yl)prop-2-en-1-one]
82 µM (≈ 35.4 µg/mL)	7.96	< 4.50	–	C=CC(=O)N1C[C@H](F)[C@H](Nc2ncc(-c3ccc(C(F)(F)F)cn3)c3ncccc23)C1 [Example 36, 1-((3S,4R)-3-fluoro-4-((8-(5-(trifluoromethyl)pyridin-2-yl)-1,6-naphthyridin-5-yl)amino)pyrrolidin-1-yl)prop-2-en-1-one]
–	6.55	4.71	6.08	C=CC(=O)N1C[C@@H](CN(C)C)[C@H](Nc2nnc(-c3ccc(C(F)(F)F)cc3)c3ccccc23)C1 [Example 46, 1-((3R,4S)-3-((dimethylamino)methyl)-4-((4-(4-(trifluoromethyl)phenyl)phthalazin-1-yl)amino)pyrrolidin-1-yl)prop-2-en-1-one]
